Here are results for 47 compounds from ChEMBL document CHEMBL6103650, “Hybrid Molecules of Benzothiazole and Hydroxamic Acid as Dual-Acting Biofilm Inhibitors with Antibacterial Synergistic Effect against Pseudomonas aeruginosa Infections” (J Med Chem, 2025).

The structures appear in SMILES notation.

For assay [1], the system named is Pseudomonas aeruginosa. The assay is described as follows: Antibacterial activity against Pseudomonas aeruginosa PAO1 assessed as inhibition of bacterial growth incubated for 24 hrs by serial dilution method. Type of assay: functional.
In assay [2] the test system is Pseudomonas aeruginosa. Put plainly: Antibiofilm activity against Pseudomonas aeruginosa PAO1 assessed as inhibition of biofilm formation incubated for 24 hrs by crystal violet staining based analysis. Type of assay: functional, organism-based. The settings on record: PAO1, 24 h.
Assay [3] deals with Pseudomonas aeruginosa. Put plainly: Antibiofilm activity against Pseudomonas aeruginosa PA14 assessed as inhibition of biofilm formation incubated for 24 hrs by crystal violet staining based analysis. It counts as functional, organism-based. The following applies: PA14, 24 h.
Assay [4] concerns Pseudomonas aeruginosa. Put plainly: Antibacterial activity against Pseudomonas aeruginosa PAO1 infected in BALB/c mouse wound infection model assessed as reduction in wound area at 0.0025 mg/mL administered to wound once a day for 3 days and measured after 9 days in dropwise manner. It counts as functional. The arrangement: scale not given: the % may be the effect or the level left. The following applies: time 12 day.

Assay [5] concerns Pseudomonas aeruginosa. The assay is described as follows: Antibacterial activity against Pseudomonas aeruginosa PAO1 infected in BALB/c mouse wound infection model assessed as bacterial survival rate in wound at 0.5 mg/mL administered to wound once a day for 3 days in dropwise manner. It counts as functional. The following applies: PAO1, 72 h, time 3 day.
In assay [6] the test system is Pseudomonas aeruginosa. The assay is described as follows: Antibacterial activity against Pseudomonas aeruginosa PAO1 infected in BALB/c mouse wound infection model assessed as reduction in wound area at 0.5 mg/mL administered to wound once a day for 3 days and measured after 9 days in dropwise manner. It counts as functional. The arrangement: scale not given: the % may be the effect or the level left. The following applies: time 12 day.

For assay [7], the system named is Pseudomonas aeruginosa. Put plainly: Antibiofilm activity against Pseudomonas aeruginosa PAO1 assessed as reduction in pFe(III) content incubated for 24 hrs. It counts as functional.

Consider `COc1cccc(NCC(=O)NCCCCC(=O)NO)c1`, for which, in assay [1], the MIC (as a rule, the lowest concentration found to suppress growth) is above 256 µM. For the same compound, the IC50 (as a rule, the point on the concentration scale where inhibition reaches its midpoint) is above 80 µM in assay [2] and above 100 µM in assay [3].
With `NC[C@H]1O[C@H](O[C@H]2[C@H](O)[C@@H](O[C@H]3O[C@H](CO)[C@@H](O)[C@H](N)[C@H]3O)[C@H](N)C[C@@H]2N)[C@H](N)C[C@@H]1O` [TOBRAMYCIN], the Activity in assay [4] stood at 41%; in assay [6], 36%. In addition, the survival at 500 µg/mL in assay [5] came to 0.22%.
Turning to `O=C(CCCCNC(=O)CNc1ccccc1)NO`, the MIC in assay [1] is above 256 µM. Moreover, the results for the IC50 in assay [2] and in assay [3] were above 80 µM and above 100 µM, respectively.
As to `O=C(CCCCNC(=O)CNc1nc2cc(F)ccc2s1)NO`, the MIC in assay [1] was above 256 µM. In addition, the figures for the IC50 in assay [2] and in assay [3] were 14.7 µM and 28.9 µM, respectively.
`COc1cccc2sc(NCC(=O)Nc3ccc(CC(=O)NO)cc3)nc12`: in assay [1], the minimal inhibitory concentration (MIC) is above 256 µM. Besides, the values for the concentration for half-maximal inhibition (IC50) in assay [2] and in assay [3] were 1.42 µM and 3.92 µM, respectively.
With `O=C(CCCCNC(=O)CNc1nc2cc(Cl)ccc2s1)NO`, the MIC in assay [1] is above 256 µM. Besides, the IC50 in assay [2] is 7.02 µM; in assay [3], 15 µM.
As to `O=C(CCCCNC(=O)CNc1nc2ccc(Cl)cc2s1)NO`, the minimal inhibitory concentration (MIC) in assay [1] was above 256 µM. Moreover, the IC50 was 2.05 µM in assay [2] and 5.67 µM in assay [3].
Regarding `O=C(CCCCCNC(=O)CNc1nc2ccccc2s1)NO`, the MIC in assay [1] is above 256 µM. Moreover, the values for the half-maximal inhibitory concentration (IC50) in assay [2] and in assay [3] were 1.58 µM and 4.26 µM, respectively.
For `O=C(CCCCNC(=O)CNc1nccs1)NO`, the MIC in assay [1] is above 256 µM. Further, the IC50 in assay [2] was found to be 14.8 µM; in assay [3] it was 30.9 µM.
As for `O=C(CCCNC(=O)c1nc2ccccc2s1)NO`, in assay [1], the minimum inhibitory concentration (MIC) was above 256 µM. Also, the IC50 came out at 1.89 µM in assay [2] and 4.29 µM in assay [3].
Consider `COc1ccc2nc(NCC(=O)NCc3ccc(CC(=O)NO)cc3)sc2c1`, for which, in assay [1], the MIC is above 256 µM. The IC50 is 6.23 µM in assay [2] and 15.6 µM in assay [3].
`COc1ccc2nc(NCC(=O)NCCCCCC(=O)NO)sc2c1`: the MIC in assay [1] is above 256 µM. For the same compound, the values for the IC50 in assay [2] and in assay [3] were 1.6 µM and 3.85 µM, respectively.
`O=C(CCCCCNC(=O)c1nc2ccccc2s1)NO`: the MIC in assay [1] is above 256 µM. The IC50 in assay [2] worked out at 10.2 µM; in assay [3], 19.1 µM.
Regarding `COc1ccc2nc(NCc3cn(CC(=O)NO)nn3)sc2c1`, the MIC in assay [1] is above 256 µM. Also, the IC50 in assay [2] stood at 1.94 µM; in assay [3] it was 5.09 µM.
With `O=C(CCCCCCNC(=O)CNc1nc2ccc(Cl)cc2s1)NO`, the minimal inhibitory concentration (MIC) in assay [1] is above 256 µM. Moreover, the 50% inhibitory concentration (IC50) in assay [2] was found to be 13.6 µM; in assay [3], 24.4 µM.
For `O=C(CCCCCCNC(=O)CNc1nc2ccc(C(F)(F)F)cc2s1)NO`, the MIC in assay [1] is above 256 µM. For the same compound, the IC50 was 3.25 µM in assay [2] and 6.65 µM in assay [3].
As for `O=C(CCCCCNC(=O)CNc1nc2ccc(Cl)cc2s1)NO`, in assay [1], the MIC is above 256 µM. The IC50 in assay [2] was determined as 20.9 µM; in assay [3], 36.6 µM.
On to `O=C(CCCCCCNC(=O)c1nc2ccccc2s1)NO`, for which the minimum inhibitory concentration (MIC) in assay [1] is above 256 µM. Moreover, the values for the IC50 in assay [2] and in assay [3] were 14.3 µM and 36.4 µM, respectively.
On the same counts, the results for `COc1ccccc1NCC(=O)NCCCCC(=O)NO` are above 256 µM, 26.9 µM and 54.5 µM.
`Cc1ccc2nc(NCC(=O)NCc3ccc(CC(=O)NO)cc3)sc2c1`: the minimal inhibitory concentration (MIC) in assay [1] was above 256 µM. In addition, the IC50 came to 2.03 µM in assay [2] and 5.6 µM in assay [3].
`O=C(CCCCCCNC(=O)CNc1nc2ccccc2s1)NO`: in assay [1], the MIC is above 256 µM. The half-maximal inhibitory concentration (IC50) in assay [2] is 8.77 µM; in assay [3], 14 µM.
On to `CCOc1ccc2nc(NCC(=O)NCc3ccc(CC(=O)NO)cc3)sc2c1`, for which the MIC in assay [1] is above 256 µM. The IC50 in assay [2] was 4 µM; in assay [3], 13.4 µM.
In the case of `Cc1c(O)c(=O)ccn1C` [DEFERIPRONE], the Activity in assay [7] was determined as 20.13.
With `COc1ccc2nc(NCC(=O)NCCCCN)sc2c1`, the MIC in assay [1] is above 256 µM. Moreover, the values for the IC50 in assay [2] and in assay [3] were above 80 µM and above 100 µM, respectively.
The matching figures for `COc1ccc2sc(NCC(=O)NCCCCC(=O)NO)nc2c1`: above 256 µM, 1.29 µM and 3.41 µM.
With `COc1ccc2nc(NCC(=O)NC3CCC(C(=O)NO)CC3)sc2c1` (centres undefined), the MIC in assay [1] was above 256 µM. Besides, the half-inhibitory concentration (IC50) worked out at 6.64 µM in assay [2] and 14.7 µM in assay [3].
The matching figures for `O=C(Cn1cc(CNc2nc3ccc(C(F)(F)F)cc3s2)nn1)NO`: above 256 µM, 2.03 µM and 5.42 µM.
As to `O=C(Cc1ccc(CNC(=O)CNc2nc3ccc(C(F)(F)F)cc3s2)cc1)NO`, the MIC in assay [1] is above 256 µM. The half-inhibitory concentration (IC50) worked out at 3.16 µM in assay [2] and 7.3 µM in assay [3].
On to `O=C(CCCCCNC(=O)CNc1nc2ccc(C(F)(F)F)cc2s1)NO`, for which the minimum inhibitory concentration (MIC) in assay [1] is above 256 µM. Further, the half-inhibitory concentration (IC50) was 3.67 µM in assay [2] and 11.7 µM in assay [3].
The matching figures for `COC(=O)CCCCNC(=O)CNc1nc2ccc(OC)cc2s1`: above 256 µM, 14.7 µM and 18.4 µM.
In the case of `Cc1ccc2nc(NCC(=O)Nc3ccc(CC(=O)NO)cc3)sc2c1`, the MIC in assay [1] was above 256 µM. For the same compound, the values for the IC50 in assay [2] and in assay [3] were 1.64 µM and 4.33 µM, respectively.
For `COc1cccc2sc(NCC(=O)NCCCCC(=O)NO)nc12`, in assay [1], the MIC is above 256 µM. Besides, the IC50 turned out to be 0.51 µM in assay [2] and 1.89 µM in assay [3].
Turning to `COc1ccc(NCC(=O)NCCCCC(=O)NO)cc1`, the minimal inhibitory concentration (MIC) in assay [1] is above 256 µM. Also, the IC50 in assay [2] is above 80 µM; in assay [3], above 100 µM.
The matching figures for `O=C(CCCCNC(=O)CNc1nc2ccccc2s1)NO`: above 256 µM, 3.33 µM and 7.02 µM.
Turning to `COc1cccc2sc(NCC(=O)NCc3ccc(CC(=O)NO)cc3)nc12`, the MIC in assay [1] was above 256 µM. The half-inhibitory concentration (IC50) was 2.85 µM in assay [2] and 7.78 µM in assay [3].
On the same counts, the results for `O=C(Cc1ccc(CNC(=O)CNc2nc3ccc(Br)cc3s2)cc1)NO` are above 256 µM, 1.17 µM and 2.93 µM.
The matching figures for `COc1ccc2nc(NCC(=O)NCCCC(=O)NO)sc2c1`: above 256 µM, 5.15 µM and 15.2 µM.
For the compound `O=C(CCCCNC(=O)CNc1nc2ccc(Br)cc2s1)NO`, the MIC in assay [1] is above 256 µM. The concentration for half-maximal inhibition (IC50) in assay [2] came to 1.49 µM; in assay [3], 4.49 µM.
On to `O=C(Cn1cc(CNC(=O)c2nc3ccccc3s2)nn1)NO`, for which the minimal inhibitory concentration (MIC) in assay [1] is above 256 µM. Also, the IC50 in assay [2] worked out at 12.8 µM; in assay [3], 24.4 µM.
Consider `CC[C@H]1OC(=O)[C@H](C)[C@@H](O[C@H]2C[C@@](C)(OC)[C@@H](O)[C@H](C)O2)[C@H](C)[C@@H](O[C@@H]2O[C@H](C)C[C@H](N(C)C)[C@H]2O)[C@](C)(O)C[C@@H](C)CN(C)[C@H](C)[C@@H](O)[C@]1(C)O` [AZITHROMYCIN], for which, in assay [1], the minimum inhibitory concentration (MIC) is above 256 µM. In addition, the 50% inhibitory concentration (IC50) in assay [2] amounted to 11 µM; in assay [3], 38.5 µM.
On the same counts, the results for `Cc1ccc2nc(NCC(=O)NCCCCC(=O)NO)sc2c1` are above 256 µM, 0.79 µM and 2.21 µM.
For the compound `O=C(CCCCNC(=O)CNc1nc2ccc(F)cc2s1)NO`, the MIC in assay [1] is above 256 µM. Besides, the IC50 in assay [2] worked out at 2.01 µM; in assay [3] it was 5.26 µM.
Take `O=C(Cc1ccc(CNC(=O)CNc2nc3cc(F)ccc3s2)cc1)NO`: the MIC in assay [1] was above 256 µM. Further, the values for the IC50 in assay [2] and in assay [3] were 3.17 µM and 7.9 µM, respectively.
Regarding `O=C(NO)c1ccc(CNC(=O)c2nc3ccccc3s2)cc1`, the MIC in assay [1] was above 256 µM. The 50% inhibitory concentration (IC50) in assay [2] worked out at 3.85 µM; in assay [3], 11.1 µM.
As to `O=C(Cc1ccc(CNC(=O)CNc2nc3cc(Br)ccc3s2)cc1)NO`, in assay [1], the MIC is above 256 µM. For the same compound, the figures for the IC50 in assay [2] and in assay [3] were 2.48 µM and 6.3 µM, respectively.
Consider `O=C(CCCCNC(=O)CNc1nc2ccc(C(F)(F)F)cc2s1)NO`, for which the MIC in assay [1] was above 256 µM. Moreover, the half-inhibitory concentration (IC50) turned out to be 1.72 µM in assay [2] and 4.26 µM in assay [3].
Regarding `O=C(Cn1cc(CNc2nc3ccc(Cl)cc3s2)nn1)NO`, the minimal inhibitory concentration (MIC) in assay [1] is above 256 µM. The 50% inhibitory concentration (IC50) in assay [2] amounted to 10.2 µM; in assay [3], 17.5 µM.
